# Reference: patent US20160311795A1, “PYRIMIDINE DIAMINE DERIVATIVES AS INHIBITORS OF CYTOSOLIC HSP90” (CALASIA PHARMACEUTICALS, INC., priority 2012, published 2016)
# How the values were obtained:
# LnCaP cells = assay: Tumor cell viability, ATPlite; type: cell-based; conditions: Homo sapiens, 72 h, read-out: EC50, decrease in cell viability
# Procedure: Akt1 levels in the cell lysates were measured using kits from R&D Systems used according to the manufacturer's recommendations. Cell lysates were assayed at a 1:24 dilution for the Akt1 ELISA. The Akt1 concentrations in the cell lysates were extrapolated from the standard curve and corrected for lysate protein concentration. Akt1 levels were determined using a micro-titer plate reader (Model #Synergy HT; BioTek Inc., Winooski, Vt.). LnCaP cells were cultured in culture medium and passaged after lifting using 0.25% trypsin/EDTA. LnCaP cells were seeded into a 96 well tissue culture plate at 1.3×10^4 cells per well in a volume of 100 uL of culture medium. […] Caspase 3/7 activity was measured using a Homogeneous Caspase 3/7 Assay Kit used according to the manufacturer's recommendations. In detail, an equal volume of Caspase 3/7 Assay Kit reagent was added to the wells and fluorescence readings (Ex/Em 485/528) were taken after 3, 6, and 23 h at ambient temperature using a micro-titer plate reader. […] Fluorescence intensities of the dilutions were measured to obtain a standard curve. […] Cell viability was measured with the ATPlite Kit used according to the manufacturer's recommendation. […] Cultures were mixed at 1,000 rpm for 2 min in the dark and luminescence quantification was accomplished using a micro-titer plate reader (POLARstar Omega micro-titer plate reader; BMG Labtech).
# Hsp90 = assay: Rat CNS Hsp90 inhibition (ex vivo labeled geldanamycin displacement in CNS lysates); conditions: 40 mg/kg
# [1] = test system: mitochondria isolated from U251MG cells; assay: Mitochondrial membrane potential in isolated TMRE-loaded mitochondria; type: cell-based, human; conditions: 10 μM or 2 μM, 30° C.
# Procedure: Additional experiments were performed to determine the effect of SBI-0640725 on mitochondrial integrity. U251MG cells were treated with tetramethylrhodamine ethyl ester (TMRE), and fluorescence was visualized using fluorescence confocal microscopy (FIG. 16 panel A), or quantitated using a fluorimeter (FIG. 16 panel B) after cells had been treated with increasing concentrations of SBI-0640725 for 48 hours. […] In experiments using isolated mitochondria, mitochondrial membrane potential was determined as a measure of mitochondrial integrity. TMRE-loaded mitochondria isolated from U251MG cells were treated with either 10 μM (left bar of the pair in FIG. 17) or 2 μM (right bar of the pair in FIG. 17) SBI-0640725 while continually monitoring changes in fluorescence intensity at 30° C.
# Akt1 in MBA-MD-231 cells = assay: Hsp90 client protein stability, Akt1 ELISA; type: cell-based; conditions: MBA-MD-231, 48 hours, increasing concentrations
# Procedure: In further experiments, the effect of SBI-0640725 on the stability of Hsp90 client proteins was analyzed. […] Akt1 protein levels were measured in cell lysates using ELISA.
# [2] = test system: Caspase 3/7 activity in HepG2 cells; assay: Cellular Caspase-3/7 luminescence assay; type: cell-based; conditions: HepG2, 72 hours
# Procedure: (§1) Further, the effect of SBI-0640725 on cellular caspase levels was also quantitated in U251MG, MBA-MD-231 and HepG2 cells. Each cell type was treated with increasing concentrations of SBI-0640725 for 72 hours. Quantification of total cellular Caspase-3 and 7 activity was accomplished using a Caspase-3/7 luminescence assay kit (Promega) according to the manufacturer's recommendations, and analyzed with a POLARstar Omega micro-titer plate reader (BMG). […] Caspase activity is a marker for apoptotic cell death.
# [3] = test system: Caspase 3/7 activity in MBA-MD-231 cells; assay: Cellular Caspase-3/7 luminescence assay; type: cell-based; conditions: MBA-MD-231, 72 hours
# Procedure: as §1
# U251MG cells = assay: Mitochondrial stress response, oxygen consumption rate (OCR); type: cell-based, human; conditions: FCCP as inducer of stress
# Procedure: In further experiments, the effect of SBI-0640725 on mitochondrial stress response in U251MG cells was determined by measuring the mitochondrial oxygen consumption rate (OCR). The OCR was measured in real time, both before, and after treating U251 MG cells with increasing concentrations of SBI-0640725. The time of compound addition is indicated in FIG. 15A by the vertical line labeled D. Mitochondrial bioenergetics stress was determined by treating the cells sequentially with 0.125 mg/ml oligomycin (OA; vertical line O), […] carbonyl cyanide-4-(trifluoromethoxy)phenylhydrazone (FCCP; vertical line F) and […] rotenone (vertical line R) while continuing OCR measurement. Oligomycin (OA) generates mitochondrial stress by inhibiting ATP synthase and FCCP uncouples mitochondrial oxidative phosphorylation. The OCR data shown in FIG. 15A is presented in FIG. 15B after normalization using cell protein concentration, and subtracting extra-mitochondrial respiration, as determined by the respiration observed upon addition of rotenone. These experiments tested whether SBI-0640725 could inhibit the ability of mitochondria to compensate for these stressors. […] FCCP dissipates the electrochemical gradient that drives ATP synthesis. Thus, in order to maintain the membrane potential, mitochondria needs to increase the flow of electrons, thereby reflecting an increase in the OCR.
# HepG2 = assay: Cell viability / efficacy in liver cancer cells, ADP-GLO; type: cell-based
# Procedure: The effect of SBI-0640725 on cell viability was determined by measuring cellular dehydrogenase activity (U251MG and MBA-MD-231 cells) or by measuring ADP levels (HepG2) after treating cells for 72 hours with increasing concentrations of SBI-0640725. To measure dehydrogenase activity, CCK-8 kit reagent (Dojindo) was added to the wells and incubated for 2 hours, after which absorbance was measured at 450 nm using a Synergy HT micro-titer plate reader (Biotek). To measure ADP levels, ADP-GLO reagent (Life Technologies) was added to the wells, and luminescence was measured after a 30 minute incubation using a POLARstar Omega micro-titer plate reader (BMG).
# The table below summarizes efficacy of SBI-0640725 in various cancer cell lines, including U251MG, MDA-MB-231, and HepG2, using ADP-GLO assay described above. As used herein “efficacy” (EC50) is the concentration of a compound that produces half-maximal response in a cellular assay.
SMILES,EC50 (LnCaP cells),inhibition of Hsp90 activity in CNS tissues (Hsp90),mitochondrial membrane potential [1],levels of the client protein Akt1 (Akt1 in MBA-MD-231 cells),Caspase 3/7 activity [2],Caspase 3/7 activity [3],mitochondrial stress response (OCR) (U251MG cells),"cell viability (HepG2; HepG2, 72 hours, ADP levels (ADP-GLO))","EC50 (HepG2; Homo sapiens, Liver Cancer, HepG2, ADP-GLO)"
"COc1c(C)cnc(CN(CCc2ccccc2)c2cc(Cl)nc(N)n2)c1C [SBI-0639353, 6-Chloro-N4-((4-methoxy-3,5-dimethylpyridin-2-yl)methyl)-N4-phenethylpyrimidine-2,4-diamine]",3.8 µM,inhibition of Hsp90 activity,–,–,–,–,–,–,–
COc1c(C)cnc(CN(CCc2ccc(F)cc2)c2cc(Cl)nc(N)n2)c1C [SBI-0640725],–,–,mitochondrial membrane potential decreased,progressive decrease in the levels of the client protein Akt1,increase in Caspase 3/7 activity,increase in Caspase 3/7 activity,significantly inhibit the ability of mitochondria to compensate for stress,reduction in cell viability,1.3 µM
